According to PubChem BioAssay (NCI):
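48-hour exposure; five concentrations; linearly interpolated endpoints. GI50 marks 50% less growth. TGI: total growth inhibition.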

Assays:
Assay in all cases: NCI anticancer screen, dose series, 48 h
[1] = system: CCRF-CEM leukemia
[2] = system: HOP-62 NSCLC
[3] = system: IGROV1 ovarian
[4] = system: NCI-H460 lung
[5] = system: NCI-H522 lung
[6] = system: RXF 393 renal
[7] = system: SNB-19 CNS
[8] = system: SR leukemia
[9] = system: UACC-62 melanoma
[10] = system: PC-3 prostate

Structure (SMILES) | TGI [1] [µM] | TGI [2] [µM] | TGI [3] [µM] | TGI [4] [µM] | TGI [5] [µM] | TGI [6] [µM] | TGI [7] [µM] | TGI [8] [µM] | TGI [9] [µM] | GI50 [1] [µM] | GI50 [3] [µM] | GI50 [4] [µM] | GI50 [5] [µM] | GI50 [8] [µM] | GI50 [2] [µM] | GI50 [7] [µM] | GI50 [9] [µM] | GI50 [6] [µM] | GI50 [10] [µM] | TGI [10] [µM]
N#CC(C(=O)/C(=N\NC(N)=O)C(C#N)c1ccccc1)c1ccccc1 (stereo not given) | > 100 | > 100 | > 100 | > 100 | > 100 | > 100 | > 100 | > 100 | > 100 | – | – | – | – | – | – | – | – | – | – | –
N/N=C(/Cc1nc2ccc(C(=O)c3ccccc3)cc2[nH]c1=O)C(=O)Nc1ccc([N+](=O)[O-])cc1[N+](=O)[O-] | > 100 | – | > 100 | > 100 | > 100 | > 100 | > 100 | > 100 | > 100 | > 100 | > 100 | > 100 | > 100 | > 100 | – | – | – | – | – | –
CCOC(=O)CC(NC(=O)c1[nH]cnc1/N=N/N(C)C)C(=O)OCC (stereo not given) | > 100 | > 100 | > 100 | > 100 | > 100 | – | > 100 | > 100 | > 100 | – | – | – | – | – | – | – | – | – | – | –
CC(=O)[CH-]C(=O)c1ccccc1.CC(=O)[CH-]C(=O)c1ccccc1.O=S(=O)([O-])c1cc([O-])c2c([O-])cc(S(=O)(=O)[O-])cc2c1.[Na+].[Zr+4] | – | > 100 | > 100 | > 100 | > 100 | – | > 100 | – | > 100 | – | > 100 | 94.1 | > 100 | – | 76 | 35.3 | > 100 | – | – | –
CCNC(=O)OCc1c(COC(=O)NCC)c(-c2ccc(Cl)c(Cl)c2)n2c1CCC2 | 21.4 | 23.8 | 48.7 | 25.7 | 19.8 | – | 68.1 | 30.1 | 23.1 | – | – | – | – | – | – | – | – | – | – | –
O=C(Nc1ccc(Cl)cc1Cl)OC(Cn1cncn1)c1ccc(Cl)cc1Cl (stereo not given) | > 100 | 34.5 | 31.4 | – | 34.8 | 30.9 | 30.8 | > 100 | 28.1 | – | – | – | – | – | – | – | – | – | – | –
COC(=O)C1=CC2C=CC(C1C(=O)OC)C1C(C(=O)OC)=C(C(=O)OC)C(C(=O)OC)=C(C(=O)OC)C21OC (stereo not given) | – | > 100 | > 100 | > 100 | > 100 | > 100 | – | > 100 | > 100 | – | – | – | – | – | – | – | – | – | – | –
COc1cc(OC)cc(-c2cc(=O)c3cc4c(cc3[nH]2)OCO4)c1 | 4.56 | 17.9 | 18.2 | 3.33 | 0.593 | 0.518 | 72.5 | 9.54 | > 53.3 | – | – | – | – | – | – | – | – | 0.219 | – | –
O=C(/C=C/c1cccc([N+](=O)[O-])c1)c1ccc([N+](=O)[O-])cc1 | > 100 | > 100 | > 100 | > 100 | > 100 | > 100 | > 100 | > 100 | > 100 | – | – | – | – | – | – | – | – | – | – | –
O=C1c2ccccc2C2CCC1c1ccccc12 (stereo not given) | > 100 | > 100 | > 100 | > 100 | 70.6 | 78 | > 100 | 58.2 | > 100 | – | – | – | – | – | – | – | – | – | – | –
CN(/N=C/c1ccnc2ccccc12)c1c([N+](=O)[O-])cc([N+](=O)[O-])cc1[N+](=O)[O-] | > 100 | > 100 | > 100 | > 100 | 92.8 | > 100 | > 100 | – | > 100 | – | – | – | – | – | – | – | – | – | – | –
CNS(=O)(=O)NNS(=O)(=O)c1ccc(OC)cc1 | > 100 | > 100 | > 100 | > 100 | > 100 | > 100 | > 100 | > 100 | > 100 | – | – | – | – | – | – | – | – | – | – | –
CC1NC(=O)C2=C1C(=O)NC(=O)C2 (stereo not given) | > 100 | > 100 | > 100 | > 100 | > 100 | > 100 | – | – | > 100 | > 100 | > 100 | > 100 | > 100 | – | > 100 | – | > 100 | > 100 | > 100 | > 100
Cc1cc(C)c(-c2c(N)cc(Br)cc2Br)c(N)c1 | – | – | 22.7 | 16.7 | 19.1 | 8.78 | 26.4 | – | 17.2 | – | 6.13 | 4.5 | 4.85 | – | – | 6.68 | 4.3 | 3.16 | 6.42 | 26.5
CC1=CC(C)(C)NN1C1=NS(=O)(=O)c2ccccc2N1C | > 100 | > 100 | > 100 | > 100 | > 100 | > 100 | > 100 | – | > 100 | – | – | – | – | – | – | – | – | – | – | > 100
CC1C2C=C(O)C(=O)C(C2=O)C1c1ccccc1 (stereo not given) | > 100 | > 100 | > 100 | – | > 100 | > 100 | > 100 | > 100 | > 100 | – | – | – | – | – | – | – | – | – | – | –
COc1c(-c2ccccc2)nc2ccc(Oc3ccccc3)nn12 | 99.3 | > 100 | > 100 | > 100 | > 100 | > 73.6 | > 100 | > 100 | > 100 | – | – | – | – | – | – | – | – | – | – | –
Cn1cc2ccccc2c1-c1nc(F)nc(Oc2ccc3c(c2)CC[C@@H]2C3CC[C@@]3(C)C2C[C@H](O)[C@@H]3O)n1 (stereo not given in full) | 6.43 | 18.7 | 45.4 | 83 | 27.2 | 66.6 | 29.5 | – | 40.6 | – | – | – | – | – | – | – | – | – | – | –
COC(=O)C1C(=O)O[C@@H](c2cc(OC)c(OC)cc2OC)C1C(=O)OC (mixture of isomers) | > 100 | > 100 | > 100 | > 100 | > 100 | > 100 | > 100 | > 100 | > 100 | – | – | – | – | – | – | – | – | – | – | –
O=c1c(Cl)c(Cl)cnn1CCCl | 4.84 | 34.5 | 3.85 | 23.1 | 1.12 | 4.74 | 16.4 | – | 8.25 | – | – | – | – | – | – | – | – | – | – | –
O=C(c1ccc(Cl)cc1)c1ccc(OCCCOc2ccc(C(=O)c3ccc(Cl)cc3)cc2Cl)c(Cl)c1 | > 100 | > 100 | > 100 | > 100 | > 100 | > 100 | > 100 | > 100 | > 100 | – | – | – | – | – | – | – | – | – | – | –
